Earlier results, collected in patent publication US20210069377A1, “TISSUE SCAFFOLD” (priority 2018, published 2021).

Conditions: at 20° C. and 1 atm

For O=C(CO)[C@@H](O)[C@H](O)[C@H](O)CO [Fructose], the solubility is listed as “about 375 g/100 g water”.
